In the supplement of paper PMC10627819:

Legend:
[1] = tested on: S. aureus Newman; assay: fitness (endpoint OD595 vs no drug) (fraction); higher = more growth
Outline: (§1)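 Fitness was measured as bacterial growth in 384-well plates inoculated at OD595 0.01 (30 µl, or 55 µl for S. pneumoniae). Media were TSB, LB Lennox or CY, at 37 °C. OD595 was read every 30 min for 14 h and background-subtracted against the first reading. Fitness is OD595 at the transition into stationary phase divided by the robust mean of no-drug control wells, capped at 1.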

[2] = tested on: S. aureus DSM 20231; assay: Bliss interaction score (quartile over a dose matrix) (fitness difference); higher = more antagonism (negative = synergy)
Outline: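 Quartiles summarise the Bliss score over technical, biological and donor/recipient replicates, where the score is observed minus expected fitness under a product model. Expected fitness uses single-drug values inferred from combination data. Fitness is OD595 at entry into stationary phase over the plate's robust no-drug mean, capped at 1.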

[3] = tested on: S. pneumoniae D39V; assay: fitness (endpoint OD595 vs no drug) (fraction); higher = more growth
Outline: as §1

[4] = tested on: S. aureus DSM 20231; assay: as above
Outline: as §1
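For Bliss interaction score (quartile over a dose matrix) in this document: first quartile when negative (synergy) and third quartile when positive (antagonism).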

CC1(C)S[C@@H]2[C@H](NC(=O)[C@H](N)c3ccc(O)cc3)C(=O)N2[C@H]1C(=O)O [Amoxicillin] + CC1(C)S[C@@H]2[C@H](NC(=O)Cc3ccccc3)C(=O)N2[C@H]1C(=O)O [Penicillin G]
fitness, [1]
Details	first compound 0.0625 µg/mL	first compound 0.125 µg/mL	first compound 0.25 µg/mL
partner 0.0195 µg/mL	0.845	0.855	–
partner 0.039 µg/mL	0.878	0.833	0.797
partner 0.078 µg/mL	0.796	0.801	0.807

CC1(C)S[C@@H]2[C@H](NC(=O)[C@H](N)c3ccc(O)cc3)C(=O)N2[C@H]1C(=O)O [Amoxicillin] + CC(=O)Oc1cccc2c1C(=O)c1c(OC(C)=O)cc(C(=O)O)cc1C2=O [Diacerein]
Details	Bliss interaction score
[2]	-0.192

CC1(C)S[C@@H]2[C@H](NC(=O)[C@H](N)c3ccc(O)cc3)C(=O)N2[C@H]1C(=O)O [Amoxicillin] + CC(=O)Oc1ccccc1C(=O)O [Acetylsalicylic acid]
fitness
Details	first compound 0.0008 µg/mL	first compound 0.0015 µg/mL	first compound 0.003 µg/mL	first compound 0.0625 µg/mL	first compound 0.125 µg/mL	first compound 0.25 µg/mL	first compound 0.5 µg/mL
[3], partner 250 µg/mL	0.958	0.975	0.919	–	–	–	–
[3], partner 500 µg/mL	0.939	0.923	0.905	–	–	–	–
[3], partner 1000 µg/mL	0.774	0.896	0.865	–	–	–	–
[4], partner 250 µg/mL	–	–	–	0.511	0.448	0.0498	0.0014
[4], partner 500 µg/mL	–	–	–	0.449	0.395	0.05	0.0115
[4], partner 1000 µg/mL	–	–	–	0.144	0.284	0.0643	0.0095

[3], first compound 0.006 µg/mL, one replicate
Details	fitness
partner 250 µg/mL	0.465
partner 500 µg/mL	0.507
partner 1000 µg/mL	0.483

CC1(C)S[C@@H]2[C@H](NC(=O)[C@H](N)c3ccc(O)cc3)C(=O)N2[C@H]1C(=O)O [Amoxicillin] + CC/C(=C(\c1ccccc1)c1ccc(OCCN(C)C)cc1)c1ccccc1 [Tamoxifene]
Details	Bliss interaction score
[2]	-0.148

CC1(C)S[C@@H]2[C@H](NC(=O)[C@H](N)c3ccc(O)cc3)C(=O)N2[C@H]1C(=O)O [Amoxicillin] + CCN(CC)CCOc1ccc(C(=C(Cl)c2ccccc2)c2ccccc2)cc1 [Clomiphene]
Details	Bliss interaction score
[2]	-0.255

CC1(C)S[C@@H]2[C@H](NC(=O)[C@H](N)c3ccc(O)cc3)C(=O)N2[C@H]1C(=O)O [Amoxicillin] + CN(C)[C@@H]1C(O)=C(C(N)=O)C(=O)[C@@]2(O)C(O)=C3C(=O)c4c(O)ccc(Cl)c4[C@@](C)(O)[C@H]3C[C@@H]12 [Chlortetracycline]
one replicate
Details	fitness
[3], first compound 0.0008 µg/mL, partner 0.012 µg/mL	0.904
[3], first compound 0.0008 µg/mL, partner 0.024 µg/mL	0.844
[3], first compound 0.0008 µg/mL, partner 0.048 µg/mL	0.853
[3], first compound 0.006 µg/mL, partner 0.012 µg/mL	0.482
[3], first compound 0.006 µg/mL, partner 0.024 µg/mL	0.45
[3], first compound 0.006 µg/mL, partner 0.048 µg/mL	0.378
[4], first compound 0.125 µg/mL, partner 0.006 µg/mL	0.402
[4], first compound 0.25 µg/mL, partner 0.006 µg/mL	0.052
[4], first compound 0.5 µg/mL, partner 0.006 µg/mL	0

fitness
Details	partner 0.012 µg/mL	partner 0.024 µg/mL	partner 0.048 µg/mL	partner 0.375 µg/mL	partner 0.75 µg/mL	partner 1.5 µg/mL
[3], first compound 0.0008 µg/mL	–	–	–	0.0877	0.0924	0.0983
[3], first compound 0.0015 µg/mL	0.845	0.854	0.887	0.119	0.0947	0.123
[3], first compound 0.003 µg/mL	0.808	0.804	0.85	0.0652	0.045	0.0882
[4], first compound 0.0625 µg/mL	0.421	0.169	0.0806	–	–	–
[4], first compound 0.125 µg/mL	0.236	0.127	0.0782	–	–	–
[4], first compound 0.25 µg/mL	0.0422	0.0199	0.0289	–	–	–
[4], first compound 0.5 µg/mL	0.0037	0.0085	0.0227	–	–	–

CC1(C)S[C@@H]2[C@H](NC(=O)[C@H](N)c3ccc(O)cc3)C(=O)N2[C@H]1C(=O)O [Amoxicillin] + CO[C@@]12[C@H](COC(N)=O)C3=C(C(=O)C(C)=C(N)C3=O)N1C[C@@H]1N[C@@H]12 [Mitomycin C]
Details	fitness
[1], first compound 0.0625 µg/mL, partner 0.0156 µg/mL	0.67
[1], first compound 0.0625 µg/mL, partner 0.0312 µg/mL	0.646
[1], first compound 0.0625 µg/mL, partner 0.0625 µg/mL	0.502
[1], first compound 0.125 µg/mL, partner 0.0156 µg/mL	0.714
[1], first compound 0.125 µg/mL, partner 0.0312 µg/mL	0.649
[1], first compound 0.125 µg/mL, partner 0.0625 µg/mL	0.465
[1], first compound 0.25 µg/mL, partner 0.0312 µg/mL	0.627
[3], first compound 0.0008 µg/mL, partner 0.001075 µg/mL	≥ 1
[3], first compound 0.0008 µg/mL, partner 0.00215 µg/mL	0.895
[3], first compound 0.0008 µg/mL, partner 0.0043 µg/mL	0.799
[3], first compound 0.0015 µg/mL, partner 0.001075 µg/mL	0.994
[3], first compound 0.0015 µg/mL, partner 0.002 µg/mL	0.778
[3], first compound 0.0015 µg/mL, partner 0.00215 µg/mL	0.876
[3], first compound 0.0015 µg/mL, partner 0.004 µg/mL	0.836
[3], first compound 0.0015 µg/mL, partner 0.0043 µg/mL	0.816
[3], first compound 0.0015 µg/mL, partner 0.008 µg/mL	0.674
[3], first compound 0.003 µg/mL, partner 0.001075 µg/mL	0.938
[3], first compound 0.003 µg/mL, partner 0.002 µg/mL	0.702
[3], first compound 0.003 µg/mL, partner 0.00215 µg/mL	0.832
[3], first compound 0.003 µg/mL, partner 0.004 µg/mL	0.728
[3], first compound 0.003 µg/mL, partner 0.0043 µg/mL	0.761
[3], first compound 0.003 µg/mL, partner 0.008 µg/mL	0.617
[4], first compound 0.0625 µg/mL, partner 0.0156 µg/mL	0.522
[4], first compound 0.0625 µg/mL, partner 0.0312 µg/mL	0.467
[4], first compound 0.0625 µg/mL, partner 0.0625 µg/mL	0.31
[4], first compound 0.125 µg/mL, partner 0.0156 µg/mL	0.359
[4], first compound 0.125 µg/mL, partner 0.0312 µg/mL	0.226
[4], first compound 0.125 µg/mL, partner 0.0625 µg/mL	0.0925
[4], first compound 0.25 µg/mL, partner 0.0156 µg/mL	0.0215
[4], first compound 0.25 µg/mL, partner 0.0312 µg/mL	0.0317
[4], first compound 0.25 µg/mL, partner 0.0625 µg/mL	0.0251
[4], first compound 0.5 µg/mL, partner 0.0156 µg/mL	0.0035
[4], first compound 0.5 µg/mL, partner 0.0312 µg/mL	0.0009
[4], first compound 0.5 µg/mL, partner 0.0625 µg/mL	0.0008

fitness, [3], one replicate
Details	partner 0.002 µg/mL	partner 0.004 µg/mL	partner 0.008 µg/mL
first compound 0.0008 µg/mL	0.785	0.79	0.739
first compound 0.006 µg/mL	0.269	0.349	0.17
